According to patent publication US20100075973A1, “POLO-LIKE KINASE INHIBITORS” (TAKEDA PHARMACEUTICAL COMPANY LIMITED, priority 2008, published 2010):
“And” between values parts separate entries of the source, which are not always exact repeats. Equal entries are not always repeated.

Molecular target: T1, human PLK1 (Homo sapiens, UniProt P53350)
T1 construct: made in house; host or cells: Sf21 insect cells, recombinant baculovirus (pFASTBAC1, Bac-to-Bac)
Assay: In vitro enzymatic assay: phosphorylation of alpha casein by recombinant PLK1 (Example A)
Format: biochemical
Conditions: recombinant FLAG-tagged PLK1, alpha casein substrate, 500 nmol/L ATP, [γ-32P]ATP, room temperature 40 min; read-out: pIC50 PLK1 (converted)
Description: Purified PLK1 may be obtained as follows. cDNA encoding human PLK1 SEQ ID No. 1, Accession Number: NM_005030 was isolated by polymerase chain reaction PCR with primers SEQ ID Nos. 2 and 3 and cloned into pcDNA4/His-Max-TOPO Invitrogen, USA according to the manufacturer's manual. PCR was performed using the vector as a template. In the PCR, primers containing sequences encoding a FLAG-tag DYKDDDDK in the amino-terminal region SEQ ID No. 4 and vector sequence SEQ ID No. 5 were used. After XbaI and XhoI digestion of the PCR product, the fragment was subcloned into pFASTBAC1 Invitrogen, USA. Recombinant baculoviruses were prepared according to the procedure of the Bac-to-Bac baculovirus expression system Invitrogen, USA. Sf21 cells were purchased from Invitrogen and grown in Sf-900 II SFM medium containing 10% fetal bovine serum, 50 gentamicin and 0.1% pluronic F-68 Invitrogen, USA at 28° C. For preparation of PLK1 enzyme, Sf21 cells were infected with recombinant baculoviruses and cultured at 28° C. for 72 h. Cells were lysed and FLAG-tagged PLK1 protein SEQ ID No. 6 was purified by affinity chromatography using anti-FLAG M2 affinity gel Sigma, USA.
The inhibition of PLK1 by the compounds was determined with the following assay that measures the phosphorylation of alpha casein by recombinant PLK1. Kinase reactions were performed at room temperature for 40 min in the kinase reaction buffer 25 mmol/L HEPES, pH 7.5, 10 mmol/L magnesium acetate, 1 mmol/L dithiothreitol containing 50 ng PLK1 enzyme, 0.1 μCi [γ-^32P]ATP, 500 nmol/L ATP and 3 μg alpha casein MP Biomedicals Inc., USA in a final volume of 50 μL. The incubation was terminated by the addition of 10% trichloroacetic acid Wako, Japan. Phosphorylated proteins were filtrated in GF/C filter plates Packard, USA with a Cell harvester Packard, USA and washed out free [γ-^32P]-ATP with 250 mmol/L phosphoric acid. Then, the plates were air dried for 60 min at 45° C., followed by the addition of 20 μL of MicroScint-O Packard, USA. The radioactivity was counted by a Top-count scintillation counter Packard, USA. The IC50 values for test compounds were calculated by Prism 3.02 GraphPad Software, USA.
pIC50 values are the negative of the log of the IC50s and may be calculated by non-linear curve fitting of the compound concentrations and fluorescence intensities to the standard pIC50 equation.

T1 sequence (P53350 whole entry): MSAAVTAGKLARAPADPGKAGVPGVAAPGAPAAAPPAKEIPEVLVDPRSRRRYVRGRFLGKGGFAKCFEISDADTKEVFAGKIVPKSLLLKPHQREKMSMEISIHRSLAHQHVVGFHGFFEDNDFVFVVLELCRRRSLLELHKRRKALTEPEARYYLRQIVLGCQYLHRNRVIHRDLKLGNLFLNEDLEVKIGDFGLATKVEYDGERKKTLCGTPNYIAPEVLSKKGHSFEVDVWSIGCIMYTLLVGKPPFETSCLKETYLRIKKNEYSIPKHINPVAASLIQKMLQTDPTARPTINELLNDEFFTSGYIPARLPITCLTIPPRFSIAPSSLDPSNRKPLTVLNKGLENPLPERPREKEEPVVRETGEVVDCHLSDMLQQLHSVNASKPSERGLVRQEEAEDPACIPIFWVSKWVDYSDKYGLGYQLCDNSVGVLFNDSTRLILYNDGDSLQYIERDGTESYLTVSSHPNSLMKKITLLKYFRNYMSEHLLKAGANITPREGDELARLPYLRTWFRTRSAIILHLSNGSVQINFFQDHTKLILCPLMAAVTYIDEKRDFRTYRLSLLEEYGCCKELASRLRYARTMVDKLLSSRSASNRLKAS

| SMILES | IC50 |
| --- | --- |
| CC[C@@H]1c2c(C#N)ncn2-c2cnc(Nc3ccc(C(=O)NC4CCN(C5CCN(CC)CC5)CC4)cc3OC)nc2N1C(C)C [Example 19, (R)-4-(7-Cyano-6-ethyl-5-isopropyl-5,6-dihydroimidazo[1,5-f]pteridin-3-ylamino)-N-(1′-ethyl-1,4′-bipiperidin-4-yl)-3-methoxybenzamide] | 2 nM |
| CC[C@@H]1c2c(C#N)ncn2-c2cnc(Nc3cc(F)c(C(=O)NC4CCN(C5CCN(CC)CC5)CC4)cc3OC)nc2N1C(C)C [Example 20, (R)-4-(7-Cyano-6-ethyl-5-isopropyl-5,6-dihydroimidazo[1,5-f]pteridin-3-ylamino)-N-(1′-ethyl-1,4′-bipiperidin-4-yl)-2-fluoro-5-methoxybenzamide] | 3.98 nM |
| CC[C@@H]1c2c(C#N)ncn2-c2cnc(Nc3cc(F)c(C(=O)NC4CCN(C5CCN(CC6CC6)CC5)CC4)cc3OC)nc2N1C(C)C [Example 22, (R)-4-(7-Cyano-6-ethyl-5-isopropyl-5,6-dihydroimidazo[1,5-f]pteridin-3-ylamino)-N-(1′-(cyclopropylmethyl)-1,4′-bipiperidin-4-yl)-2-fluoro-5-methoxybenzamide] | 3.98 nM |
| CC[C@@H]1c2c(C#N)ncn2-c2cnc(Nc3ccc(C(=O)NC4CCN(C5CCN(CC6CC6)CC5)CC4)cc3OC)nc2N1C1CCCC1 [Example 26, (R)-4-(7-Cyano-5-cyclopentyl-6-ethyl-5,6-dihydroimidazo[1,5-f]pteridin-3-ylamino)-N-(1′-(cyclopropylmethyl)-1,4′-bipiperidin-4-yl)-3-methoxybenzamide] | 1 nM |
| CC[C@@H]1c2c(C#N)ncn2-c2cnc(Nc3cc(F)c(C(=O)NC4CCN(C5CCN(CC(C)C)CC5)CC4)cc3OC)nc2N1C1CCCC1 [Example 29, (R)-4-(7-Cyano-5-cyclopentyl-6-ethyl-5,6-dihydroimidazo[1,5-f]pteridin-3-ylamino)-2-fluoro-N-(1′-isobutyl-1,4′-bipiperidin-4-yl)-5-methoxybenzamide] | 1.26 nM |
| CC[C@@H]1c2c(C#N)ncn2-c2cnc(Nc3cc(F)c(C(=O)Nc4cccc(CN5CCN(C)CC5)c4)cc3OC)nc2N1C(C)C [Example 31, (R)-4-(7-Cyano-6-ethyl-5-isopropyl-5,6-dihydroimidazo[1,5-f]pteridin-3-ylamino)-2-fluoro-5-methoxy-N-(3-((4-methylpiperazin-1-yl)methyl)phenyl)benzamide] | 10 nM |
| CC[C@@H]1c2c(C#N)ncn2-c2cnc(Nc3ccc(C(=O)NC4CN(C5CCN(CC6CC6)CC5)C4)cc3OC)nc2N1C(C)C [Example 37, (R)-4-(7-Cyano-6-ethyl-5-isopropyl-5,6-dihydroimidazo[1,5-f]pteridin-3-ylamino)-N-(1-(1-(cyclopropylmethyl)piperidin-4-yl)azetidin-3-yl)-3-methoxybenzamide] | 3.16 nM |
| CC[C@@H]1c2c(C#N)ncn2-c2cnc(Nc3cc(F)c(C(=O)NC4CN(C5CCN(CC6CC6)CC5)C4)cc3OC)nc2N1C(C)C [Example 38, (R)-4-(7-Cyano-6-ethyl-5-isopropyl-5,6-dihydroimidazo[1,5-f]pteridin-3-ylamino)-N-(1-(1-(cyclopropylmethyl)piperidin-4-yl)azetidin-3-yl)-2-fluoro-5-methoxybenzamide] | 3.16 nM |

Continued, values first:

| IC50 | SMILES |
| --- | --- |
| 3.16 nM | CC[C@@H]1c2c(C#N)ncn2-c2cnc(Nc3ccc(C(=O)NC4CCN(C5CCN(CC6CC6)CC5)CC4)cc3OC)nc2N1C(C)C [Example 21, (R)-4-(7-Cyano-6-ethyl-5-isopropyl-5,6-dihydroimidazo[1,5-f]pteridin-3-ylamino)-N-(1′-(cyclopropylmethyl)-1,4′-bipiperidin-4-yl)-3-methoxybenzamide] |
| 2 nM | CC[C@@H]1c2c(C#N)ncn2-c2cnc(Nc3ccc(C(=O)NC4CCN(C5CCN(CC(C)C)CC5)CC4)cc3OC)nc2N1C1CCCC1 [Example 27, (R)-4-(7-Cyano-5-cyclopentyl-6-ethyl-5,6-dihydroimidazo[1,5-f]pteridin-3-ylamino)-N-(1′-isobutyl-1,4′-bipiperidin-4-yl)-3-methoxybenzamide] |

Test system: not given
Assay: not given
Conditions: not given

| SMILES | melting point |
| --- | --- |
| CC[C@@H]1c2c(C#N)ncn2-c2cnc(Nc3cc(F)c(C(=O)N[C@H]4CC[C@H](N5CCN(CC6CC6)CC5)CC4)cc3OC)nc2N1C(C)C [Example 1] | 251 to 255 °C and 250 to 254 °C |
| CC[C@@H]1c2c(C#N)ncn2-c2cnc(Nc3ccc(C(=O)N[C@H]4CC[C@H](N5CCN(CC6CC6)CC5)CC4)cc3OC)nc2N1C1CCCC1 [Example 5] | 186 to 190 °C |
| CC[C@@H]1c2c(C#N)ncn2-c2cnc(Nc3cc(F)c(C(=O)NC4CCC(N5CCN(C)CC5)CC4)cc3OC)nc2N1C1CCCC1 (some centres unmarked) [Example 6] | > 205 °C |
| CC[C@@H]1c2c(C#N)ncn2-c2cnc(Nc3cc(F)c(C(=O)NC4CCC(N5CCN(CC(C)C)CC5)CC4)cc3OC)nc2N1C1CCCC1 (some centres unmarked) [Example 8] | 155 to 158 °C |
| CC[C@@H]1c2c(C#N)ncn2-c2cnc(Nc3ccc(C(=O)NC4CCC(N5CCN(CC6CC6)CC5)CC4)cc3OC)nc2N1C(C)C (some centres unmarked) [Example 11] | 198 to 204 °C |
| CC[C@@H]1c2c(C#N)ncn2-c2cnc(Nc3ccc(C(=O)NC4CCN(C5CCN(CC(C)C)CC5)CC4)cc3OC)nc2N1C(C)C [Example 23, (R)-4-(7-Cyano-6-ethyl-5-isopropyl-5,6-dihydroimidazo[1,5-f]pteridin-3-ylamino)-N-(1′-isobutyl-1,4′-bipiperidin-4-yl)-3-methoxybenzamide] | 165 to 170 °C |
| CC[C@@H]1c2c(C#N)ncn2-c2cnc(Nc3ccc(C(=O)N[C@H]4CC[C@H](N5CCN(CC6CC6)CC5)CC4)c(F)c3)nc2N1C(C)C [Example 45] | 219 to 222 °C |

Other lines, results leading:

| melting point | SMILES |
| --- | --- |
| 187 to 192 °C | CC[C@@H]1c2c(C#N)ncn2-c2cnc(Nc3ccc(C(=O)NC4CCC(N5CCN(C)CC5)CC4)cc3OC)nc2N1C1CCCC1 (some centres unmarked) [Example 2] |
| 170 to 173 °C | CC[C@@H]1c2c(C#N)ncn2-c2cnc(Nc3ccc(C(=O)NC4CCC(N5CCN(CC)CC5)CC4)cc3OC)nc2N1C1CCCC1 (some centres unmarked) [Example 3] |
| 216 to 220 °C | CC[C@@H]1c2c(C#N)ncn2-c2cnc(Nc3ccc(C(=O)NC4CCC(N5CCN(C(C)C)CC5)CC4)cc3OC)nc2N1C1CCCC1 (some centres unmarked) [Example 4] |
| 195 to 198 °C | CC[C@@H]1c2c(C#N)ncn2-c2cnc(Nc3ccc(C(=O)NC4CCC(N5CCN(C)CC5)CC4)cc3OC)nc2N1C(C)C (some centres unmarked) [Example 9] |
| 165 to 170 °C | CC[C@@H]1c2c(C#N)ncn2-c2cnc(Nc3ccc(C(=O)NC4CCC(N5CCN(CC(C)C)CC5)CC4)cc3OC)nc2N1C(C)C (some centres unmarked) [Example 12] |
| 219 to 222 °C | CC[C@@H]1c2c(C#N)ncn2-c2cnc(Nc3cc(F)c(C(=O)NC4CCC(N5CCN(CC(C)C)CC5)CC4)cc3OC)nc2N1C(C)C (some centres unmarked) [Example 18] |
